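Growth conditions: 96-well plates. Treatment: test compound, 48 hours, 5 concentrations. Analysis: linear interpolation between bracketing concentrations; unreached endpoints set to highest concentration. Abbreviation: GI50, concentration required for 50% inhibition of growth. The concentration for full growth arrest is given as TGI.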
Legend:
Test in all cases: growth of human tumour cells (NCI), 48 h
U251 CNS = system: U251 CNS
SK-MEL-5 melanoma = system: SK-MEL-5 melanoma
NCI-H460 lung = system: NCI-H460 lung
OVCAR-8 ovarian = system: OVCAR-8 ovarian
HCC-2998 colon = system: HCC-2998 colon
KM12 colon = system: KM12 colon
HOP-92 NSCLC = system: HOP-92 NSCLC
MDA-MB-435 = system: MDA-MB-435
MDA-MB-231 breast = system: MDA-MB-231 breast
MCF7 breast = system: MCF7 breast

Row | SMILES | TGI (U251 CNS) [µM] | TGI (SK-MEL-5 melanoma) [µM] | TGI (NCI-H460 lung) [µM] | TGI (OVCAR-8 ovarian) [µM] | TGI (HCC-2998 colon) [µM] | TGI (KM12 colon) [µM] | TGI (HOP-92 NSCLC) [µM] | TGI (MDA-MB-435) [µM] | TGI (MDA-MB-231 breast) [µM] | TGI (MCF7 breast) [µM] | GI50 (MDA-MB-435) [µM] | GI50 (U251 CNS) [µM] | GI50 (SK-MEL-5 melanoma) [µM] | GI50 (MDA-MB-231 breast) [µM] | GI50 (NCI-H460 lung) [µM] | GI50 (OVCAR-8 ovarian) [µM] | GI50 (HCC-2998 colon) [µM] | GI50 (KM12 colon) [µM] | GI50 (HOP-92 NSCLC) [µM] | GI50 (MCF7 breast) [µM]
1 | O=S1c2ccccc2N=C(c2ccc(Cl)cc2)CC1c1cccs1 (stereo unspecified) | 28.9 | 36.9 | > 100 | 38.4 | 36.9 | 33.8 | 72.5 |  |  |  |  |  |  |  |  |  |  |  |  | 
2 | CC1=C(/C=C/C2=CC(=C\C(=O)O)/CC(C3=C(C)CCCC3(C)C)C2)C(C)(C)CCC1 (stereo unspecified) | 23.1 | 28 | 27.8 | 27.8 |  | 24.1 | 23.7 |  |  |  |  |  |  |  |  |  |  |  |  | 
3 | COc1ccc(C(=O)C(Br)C(Br)C(=O)O)cc1 (stereo unspecified) | > 100 | > 100 | > 100 | > 100 |  | > 100 | > 100 | > 100 | > 100 | > 100 |  |  |  |  |  |  |  |  |  | 
4 | COc1cc2ccnc3c2c(c1OC)CC1CC(O)C(OC)CC31 (stereo unspecified) | > 100 | > 100 | > 100 | > 100 | > 100 | > 100 | 81.2 |  |  |  |  |  |  |  |  |  |  |  |  | 
5 | O=C1NC(=O)C(=O)C(c2nc3ccccc3s2)C1=O | > 100 | > 100 | > 100 | > 100 | > 100 | > 100 | > 100 |  |  |  |  |  |  |  |  |  |  |  |  | 
6 | CC1=C2C(=O)C(C)(C)C=C2C(=O)[C@](C)(O)C12CC2 | > 1 | > 0.612 | > 1 | > 1 | > 1 | > 1 | > 1 |  |  |  |  |  |  |  |  |  |  |  |  | 
7 | CCOC(=O)/C(C#N)=C\C=C1/C=CNC2=NCCN21 | > 100 | > 100 | > 100 | > 100 | > 100 | > 100 |  |  |  |  |  |  |  |  |  |  |  |  |  | 
8 | COc1cc([C@@H]2c3cc4c(cc3[C@H](OC(C)=O)[C@H]3COC(=O)[C@H]23)OCO4)cc(OC)c1OC | > 100 | 0.0658 | > 100 | > 100 | > 100 | > 100 | 4.94 | 0.0533 | > 100 |  | 0.0192 | 0.0352 | 0.0229 | 0.0416 | 0.0317 | 0.0361 | 0.0401 | 0.0306 | 0.0254 | 
9 | O=C(c1cc2c(C(F)(F)F)onc2c2ccccc12)C(F)(F)F | 4.76 | 15.5 | 7.17 | 7.66 | 60.4 | 52.9 | 4.99 |  |  |  |  |  |  |  |  |  |  |  |  | 
10 | NC(=O)c1cc(Cl)ccc1NC(=O)c1ccccc1-c1ccccc1 | > 100 | 15.9 | 28.7 | > 100 | 31.6 | 46.3 | 61.5 |  | 43.5 | > 100 |  | 0.65 | 0.425 | 1.89 | 0.453 | 2.81 | 2.99 | 0.872 | 3.96 | 0.457
11 | O=C1C(Cl)=C(Nc2cccc(O)c2)C(=O)N1c1cccc(Cl)c1 | > 100 | > 100 | > 100 | > 100 |  | > 100 |  | > 100 | > 100 | > 100 | 43 | 57.7 | 50.4 | 35.8 | 48.5 | 27.2 |  | 68.2 |  | 36
12 | CCN(CC)CCOC(=O)/C(=C/c1ccc(OC)cc1)c1cc(OC)c(OC)c(OC)c1 | 25.5 | 11.4 | 51.2 | 74.2 |  | 16 | 54.1 |  |  |  |  |  |  |  |  |  |  |  |  | 
13 | CC(C)Cc1ccc(C(C)/C=C2\CCC(CN3CCCC3)C2=O)cc1 (stereo unspecified) | 17.9 | 28 | 37.9 | 18 | 19.3 | 7.74 | 38 |  |  |  |  |  |  |  |  |  |  |  |  | 
14 | COc1cc2c(=O)n(CCCn3ccnc3)c3c4cc5c(cc4ccc3c2cc1OC)OCO5 | 15.8 |  | > 100 | 41.9 | > 100 | > 100 | 28.9 |  | > 100 | > 100 |  | 0.393 |  | 1.38 | 0.293 | 1.46 | 13.4 | 1.37 | 0.831 | 0.0999
15 | N#CC(C(=O)CCC(=O)Nc1ccc(Cl)cc1)c1ccccc1Cl (stereo unspecified) | > 100 | > 100 | > 100 | > 100 |  | > 100 | > 100 |  |  |  |  |  |  |  |  |  |  |  |  | 
16 | c1ccc2c(c1)nnn2CNc1ccc(N2CCOCC2)cc1 | > 100 |  | > 100 | > 100 | > 100 | > 100 | > 100 |  |  |  |  |  |  |  |  |  |  |  |  | 
17 | CCCCCCCC(=O)OCC1OC(n2cc(F)c(=O)[nH]c2=O)C(NC(=O)OCc2ccccc2)C(OC(=O)CCCCCCC)C1O (stereo unspecified) | 60.9 | 11.1 | > 100 | > 100 | > 100 | > 100 | 61.4 |  |  |  |  |  |  |  |  |  |  |  |  | 
18 | Cc1ccc(NC(=O)CC/C(CC(=O)c2ccc(Cl)cc2)=N\NC(=O)C(=O)NN)cc1C | > 100 | > 100 | > 100 | > 100 | > 100 | > 100 |  |  |  |  |  |  |  |  |  |  |  |  |  | 
19 | NNC(=O)CCC(=O)Nc1ccc(Cl)cc1Cl | > 100 | > 100 | > 100 | > 100 | > 100 | > 100 | > 100 |  |  |  |  |  |  |  |  |  |  |  |  | 
20 | CC(=O)O[C@H]1CCC2[C@@H]3CCC4Nc5c(cnn5-c5ccccc5)C[C@]4(C)C3CC[C@@]21C (stereo partly specified) | 91.5 | 22 | 42.1 | 39.6 | 25.3 | 37.8 |  |  |  |  |  |  |  |  |  |  |  |  |  | 
21 | NCC1OC(n2cnc3c(=O)[nH]c(N)nc32)C(O)C1O (stereo unspecified) | > 100 | > 100 | > 100 | > 100 |  | > 100 | > 100 | > 100 | > 100 | > 100 |  |  |  |  |  |  |  |  |  | 
22 | S=P(c1ccccc1)(c1ccccc1)C1(C2(P(=S)(c3ccccc3)c3ccccc3)CC2)CC1 | > 100 | > 100 | > 100 | > 100 | > 100 | > 100 |  |  |  |  |  |  |  |  |  |  |  |  |  | 
23 | O=C(COc1ccc(Cl)cc1)N1N=C(c2ccc([N+](=O)[O-])o2)CC1(O)c1ccccc1 (stereo unspecified) | 15.5 |  | 23.1 | 23.6 | 16.1 | 27.7 | 37.7 |  |  |  |  |  |  |  |  |  |  |  |  | 

From PubChem BioAssay (NCI)
